Read-outs that look alike come from different tables or passages of the source. Non-standard residues stand in square brackets, D forms with d. Residues, ends and D or L forms follow the SMILES beside them. No end group written: not given here. pS = N[C@@H](COP(=O)(O)O)C(=O)O
Legend:
[1] = test system: Streptococcus mutans U159; format: cell-based
Experimental: MICs were assessed for all proteins/peptides against Streptococcus mutants (S. mutans) U159 oral bacteria to identify the lowest concentration at which no bacterial growth is observed. Planktonic bacteria were grown aerobically (10% CO2) in brain heart infusion (BHI) medium (BD BBL™ #211,059, MD, USA) overnight. […] BHI medium was used as a control. Bacteria were inoculated to a final concentration of 3.0 × 10^6 CFU/ml per well. The plates were incubated at 37 °C in a 10% CO2 atmosphere for 24 h under continuous shaking (200 rpm). Absorbance at 620 nm was measured using a microtiter plate reader (BioTek™ SynergyHT, VT, USA).

[2] = test system: S. mutans U159 biofilms; test: 2-photon 3D renderings of biofilms grown on pellicle-coated HA discs; format: cell-based, Streptococcus mutans; conditions: 24 h biofilm, cariogenic conditions (1% sucrose), 2-photon 3D volume
From the text: Z-stacks were acquired with the 2-photon microscope (Ultima IV, Prairie Technology Inc., WI, USA) for 3D structural and vitality characterization of biofilms grown on protein/peptide pellicle-coated HA discs. Non-descanned high sensitivity multi-alckali photocatode photomultiplier detectors (R3896, Hamamatsu, Japan) were used to allow visualization of multiple fluorophores located deep within the specimen. The infra-red (IR) laser (MAI TAI, Spectra-Physics, USA), tuned at 870 nm, was operated in pulsed mode using a 20 × NA1.0 water-immersion objective (XLUMPlanFLN, Olympus, Japan) with a 2 mm working distance suitable for deep imaging. Images were compiled and analyzed with FIJI software (Fiji Is Just) ImageJ, version: 2.1.0/1.53c https://imagej.net/Contributors[19].

[3] = test system: S. mutans U159 biofilms; test: Crystal violet (CV) biomass assay on pellicle-coated substrates; format: cell-based, Streptococcus mutans; conditions: no sucrose (NS), 24 h biofilm; for Biovolume / biomass of biofilm (crystal violet): pellicle-coated with 200 μM for 2 h at 37 °C, OD 620 nm, compared to whole saliva; for Biofilm structure (brightfield, crystal violet-stained): polystyrene microtiter plates
Experimental: CV assay was performed to assess the remaining bioburden on pellicle-coated substrates with protein/peptide test groups in comparison to human whole saliva. Microtiter plates and HA discs were used as substrates to be pellicle-coated before growing biofilms. Each substrate was pellicle-coated with 50 μl of 200 μM protein/peptide candidates for 2 h at 37 °C under gentle shaking. Pooled filtered whole saliva and the vehicle were used as positive and negative controls respectively. The unbound protein/peptide/saliva were removed, the adjusted inoculum was dispensed without or with 1% sucrose supplementation and the samples were incubated as mentioned above but without agitation. Next day, the samples were rinsed and stained with 0.1% CV. After 15 min, the stain was rinsed, air dried, and photographed. All formed biofilms were structurally characterized with a bright field inverted microscope (EVOS™ xl core, MA, USA) before dissolving the satin, with 33% acetic acid, and reading at OD 620 nm.

[4] = test system: S. mutans U159 biofilms; test: Live/dead vitality assay of biofilms on pellicle coatings; format: cell-based, Streptococcus mutans; conditions: NS and WS conditions, HA discs; order Hist3 followed by Hist5, Hist1 and RR14; 3 independent times, n = 5
Experimental: The vitality of grown biofilms was observed alongside their biomass to determine the antimicrobial efficacy of protein/peptide pellicle-coatings against the attached bacteria in the biofilm state. All the steps are the same as mentioned above till the staining step. Working fluorescent solution was prepared by adding 3 μl of SYTO® 9 stain and 3 μl of Propidium iodide stain to 1 ml of filter-sterilized water. The staining solution was added to each sample very gently so as not to disturb the biofilm. After 20 min light-protected incubation, samples were rinsed with 0.9% NaCl and imaged with fluorescent inverted microscope (EVOS™ M5000, MA, USA) using 20 × lens. All assays were conducted 3 independent times with sample size n = 5.

[5] = 2-photon immobilization of fluorescently labelled proteins/peptides on human enamel; format: binding; conditions: FAM-labelled
From the text: This characterization method aimed to monitor the amount of protein/peptide molecules immobilized on enamel in pellicle-mimicking conditions to infer their binding capacity. Z-stacks for pellicle-coated enamel slices were acquired to monitor the immobilization patterns and thus, the binding capacity of fluorescently-labelled proteins/peptides. Enamel samples were ground to 0.5–0.6 mm and polished with 600 silica-grit papers using a polishing machine (Buehler, IL, USA). Samples were then ultrasonicated in a water bath for 20 min, dried and pellicle-coated with fluorescently labeled proteins/peptides as mentioned above. 2-photon images were acquired as aforementioned using 40 × NA 0.8 water immersion objective (LUMPlanFl/IR, Olympus, Japan). Solutions of the tagging molecule (FAM) and the vehicle, 0.01% acetic acid, were used to pellicle-coat the positive and negative controls respectively. The amount of immobilized fluorescent protein/peptide molecules were quantified by calibrating the emitted fluorescence signals[21]^. The mean integrated density was calculated that sums all of the pixels along the acquired z-stacks, 4 images each.

[6] = planktonic S. mutans U159, BHI medium, 3.0 × 10^6 CFU/ml, twofold dilutions 0–512 μM, 37 °C, 10% CO2, 24 h, shaking 200 rpm, absorbance 620 nm

Compound | MIC ([1]; U159, 24 h) [µM] | Biofilm thickness [2] | Biovolume / biomass of biofilm (crystal violet) [3] | Dead cells / antimicrobial efficacy in biofilm (Syto-9/propidium iodide) [4] | Biofilm structure (brightfield, crystal violet-stained) [3] | MIC [1, 6] [µM] | Immobilization capacity on enamel [5]
CC(C)C[C@H](NC(=O)[C@H](Cc1ccccc1)NC(=O)[C@H](CCCCN)NC(=O)[C@H](CCC(=O)O)NC(=O)[C@H](CCC(=O)O)NC(=O)[C@H](CO)NC(=O)[C@H](CO)NC(=O)[C@@H](N)CC(=O)O)C(=O)N[C@@H](CCCNC(=N)N)C(=O)O [DR9/2] (H-DSSEEKFLR-OH) | > 512 |  |  |  |  |  | 
CC(C)C[C@H](NC(=O)[C@H](Cc1ccccc1)NC(=O)[C@H](CCCCN)NC(=O)[C@H](CCC(=O)O)NC(=O)[C@H](CCC(=O)O)NC(=O)[C@H](COP(=O)(O)O)NC(=O)[C@H](COP(=O)(O)O)NC(=O)[C@@H](N)CC(=O)O)C(=O)N[C@@H](CCCNC(=N)N)C(=O)O [DR9] (H-D[pS][pS]EEKFLR-OH; N-terminus and C-terminus assumed) | > 512 | 60–65 μm | considerably reduced biomass build-up |  |  |  | 
CC(C)C[C@H](NC(=O)[C@H](Cc1ccc(O)cc1)NC(=O)[C@H](CC(N)=O)NC(=O)[C@H](CO)NC(=O)[C@H](CCCNC(=N)N)NC(=O)[C@H](Cc1ccc(O)cc1)NC(=O)CNC(=O)[C@H](CCCNC(=N)N)NC(=O)[C@H](Cc1c[nH]cn1)NC(=O)[C@H](CO)NC(=O)[C@H](Cc1c[nH]cn1)NC(=O)[C@H](Cc1c[nH]cn1)NC(=O)[C@H](CCCCN)NC(=O)[C@H](CCC(=O)O)NC(=O)[C@H](Cc1c[nH]cn1)NC(=O)[C@H](Cc1ccccc1)NC(=O)[C@H](CCCCN)NC(=O)[C@H](CCCNC(=N)N)NC(=O)[C@H](CCCCN)NC(=O)[C@H](Cc1ccc(O)cc1)NC(=O)CNC(=O)[C@H](Cc1c[nH]cn1)NC(=O)[C@H](Cc1c[nH]cn1)NC(=O)[C@H](CCCNC(=N)N)NC(=O)[C@H](CCCCN)NC(=O)[C@H](C)NC(=O)[C@H](Cc1c[nH]cn1)NC(=O)[C@H](CO)NC(=O)[C@@H](N)CC(=O)O)C(=O)N[C@@H](Cc1ccc(O)cc1)C(=O)N[C@@H](CC(=O)O)C(=O)N[C@@H](CC(N)=O)C(=O)O [Histatin3] |  |  | considerably reduced biomass build-up | Many dead cells | more dispersed biofilms | 128 | 
N=C(N)NCCC[C@H](NC(=O)[C@H](Cc1ccc(O)cc1)NC(=O)CNC(=O)[C@H](CCCNC(=N)N)NC(=O)[C@H](Cc1c[nH]cn1)NC(=O)[C@H](CO)NC(=O)[C@H](Cc1c[nH]cn1)NC(=O)[C@H](Cc1c[nH]cn1)NC(=O)[C@H](CCCCN)NC(=O)[C@H](CCC(=O)O)NC(=O)[C@H](Cc1c[nH]cn1)NC(=O)[C@H](Cc1ccccc1)NC(=O)[C@H](CCCCN)NC(=O)[C@@H](N)CCCNC(=N)N)C(=O)O [RR14] (H-RKFHEKHHSHRGYR-OH) | 384 |  |  |  |  |  | 
DSpSpEEKFLRDSpSpEEKFLR [DR9-DR9, duplicated DR9 construct, domains linked synthetically] |  |  | highest biovolume |  | clumps and aggregates | > 512 | 
D[pS][pS]EEKFLRRIGRFGYGYGPYQPVPEQPLYPQPYQPQYQQYTF [Statherin] | > 512 |  | highest biovolume |  | clumps and aggregates |  | highest immobilization capacity
Histatin1: native salivary protein, synthesized (DSHEKRHHGYRRKFHEKHHSHREFPFYGDYGSNYLYDN; ends and bridges not checked; UniProt P15515 20-57, looked up) |  |  | highest biovolume | Many dead cells |  | > 512 | 
